Measurements from PubChem BioAssay (NCI).
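Results reflect a 48-hour exposure of cells in 96-well plates to compound at five concentrations. Definition used: TGI = concentration required for complete inhibition of growth.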

Key:
Assay in all cases: inhibition of tumour cell growth, NCI panel, 48 h
[1] = system: ACHN renal
[2] = system: CAKI-1 renal
[3] = system: CCRF-CEM leukemia
[4] = system: COLO 205 colon
[5] = system: DU-145 prostate
[6] = system: HCC-2998 colon
[7] = system: HCT-116 colon
[8] = system: HCT-15 colon
[9] = system: HL-60(TB) leukemia
[10] = system: HOP-62 NSCLC
[11] = system: HT29 colon
[12] = system: K-562 leukemia
[13] = system: KM12 colon
[14] = system: M14 melanoma
[15] = system: MALME-3M melanoma
[16] = system: MDA-MB-231 breast
[17] = system: MDA-N
[18] = system: MOLT-4 leukemia
[19] = system: NCI-H460 lung
[20] = system: NCI/ADR-RES ovarian
[21] = system: OVCAR-4 ovarian
[22] = system: OVCAR-5 ovarian
[23] = system: OVCAR-8 ovarian
[24] = system: PC-3 prostate
[25] = system: RPMI-8226 leukemia
[26] = system: SF-268 CNS
[27] = system: SF-295 CNS
[28] = system: SK-MEL-5 melanoma
[29] = system: SK-OV-3 ovarian
[30] = system: SN12C renal
[31] = system: SNB-19 CNS
[32] = system: SR leukemia
[33] = system: SW-620 colon
[34] = system: T-47D breast
[35] = system: TK-10 renal
[36] = system: U251 CNS
[37] = system: UACC-257 melanoma
[38] = system: UO-31 renal
[39] = system: 786-0 renal
[40] = system: A498 renal
[41] = system: A549 NSCLC
[42] = system: EKVX NSCLC
[43] = system: HOP-92 NSCLC
[44] = system: HS 578T breast
[45] = system: IGROV1 ovarian
[46] = system: LOX IMVI melanoma
[47] = system: MCF7 breast
[48] = system: MDA-MB-435
[49] = system: NCI-H226 lung
[50] = system: NCI-H23 lung
[51] = system: OVCAR-3 ovarian
[52] = system: RXF 393 renal
[53] = system: SF-539 CNS
[54] = system: SK-MEL-28 melanoma
[55] = system: SNB-75 CNS
[56] = system: UACC-62 melanoma

Measured: TGI

COc1ccc2/c(=C/c3ccc(N(C)C)cc3)c3cc(-c4ccccc4)[n+](C)n3c2c1
0.962 µM: [32]
1.68 µM: [29]
0.579 µM: [15]
0.106 µM: [9]
0.543 µM: [24]
2.63 µM: [10]
1.47 µM: [33]
1.77 µM: [5]
3.56 µM: [19]
2.77 µM: [34]
1.37 µM: [7]
5.2 µM: [38]
0.236 µM: [4]
3.28 µM: [8]
7.77 µM: [2]
0.292 µM: [28]
0.624 µM: [11]
1.6 µM: [30]
1.66 µM: [16]
2390 nM: [1]
0.475 µM: [17]
1.99 µM: [13]
0.888 µM: [37]
0.931 µM: [18]
2.2 µM: [31]
0.731 µM: [23]
0.912 µM: [25]
> 100 µM: [20]
1.15 µM: [12]
4.19 µM: [21]
1.19 µM: [26]
1.16 µM: [14]
1.08 µM: [6]
5.37 µM: [3]
1.27 µM: [36]
1440 nM: [22]
2.51 µM: [27]
1.43 µM: [35]

BrC(=C(c1ccc(OC2CCCCO2)cc1)c1ccc(OC2CCCCO2)cc1)c1ccccc1 (configuration not stated)
not listed: [1] | [6] | [22] | [28]
> 100 µM: all other assays above

CC1OC(c2ccc3c(OCc4ccccc4)cccc3c2O)CC(OCc2ccccc2)[C@H]1OCc1ccccc1 (some centres not stated)
not listed: [1] | [7] | [19] | [20] | [21] | [22] | [31] | [32] | [36] | [38] | [40] | [43] | [44] | [46] | [48] | [49] | [51] | [53]
> 10 µM: all other assays above

CCOC(=O)c1c(-c2ccc(O)c(OC)c2)c(C#N)c(=S)n(C2OC(CO)C(O)C(O)C2O)c1-c1ccccc1 (configuration not stated)
> 100000 nM: [1] | [22]
not listed: [15] | [16] | [29] | [34] | [35] | [53] | [55]
> 100 µM: all other assays above
